From the supplement of paper PMC10307832

Assays:
Assay in all cases: relative viability (nuclei count vs DMSO), 5 days (fraction); higher = more cells survive
[1] = compound: CCn1c(-c2nonc2N)nc2c(C#CC(C)(C)O)ncc(OC[C@H]3CCCNC3)c21 + CS(=O)(=O)N1CCN(Cc2cc3nc(-c4cccc5[nH]ncc45)nc(N4CCOCC4)c3s2)CC1 [Pictilisib] (partner 1 µM)
Procedure, shortened: (§1)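 A single step with final 0.05% Triton X-100, 1% formaldehyde and 1 ug/ml Hoechst fixed the cells and stained nuclei 5 days after treatment. Lung cancer cell lines in 1536-well plates had been treated by pin tool the day after seeding with one drug alone or a fixed anchor-drug dose plus five library-drug doses (not always all listed) in √10 steps, and nuclei were counted on 4× images. Relative viability is the ratio of nuclei in treated wells to nuclei in vehicle wells, taken as the median of duplicate plates.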

[2] = compound: CCOC1=CC=CC=C1N=NC2=C(NN(C2=O)C3=NC(=CS3)C4=CC=CC=C4)C [BAM7] + O=C(c1cc(Cc2n[nH]c(=O)c3ccccc23)ccc1F)N1CCN(C(=O)C2CC2)CC1 [Olaparib] (partner 8 µM)
Procedure, shortened: as §1

[3] = compound: CCOC1=CC=CC=C1N=NC2=C(NN(C2=O)C3=NC(=CS3)C4=CC=CC=C4)C [BAM7] + Cc1nc(Nc2ncc(C(=O)Nc3c(C)cccc3Cl)s2)cc(N2CCN(CCO)CC2)n1 [Dasatinib] (partner 0.075 µM)
Procedure, shortened: as §1

[4] = compound: CCn1c(-c2nonc2N)nc2c(C#CC(C)(C)O)ncc(OC[C@H]3CCCNC3)c21 + O=C(c1cc(Cc2n[nH]c(=O)c3ccccc23)ccc1F)N1CCN(C(=O)C2CC2)CC1 [Olaparib] (partner 8 µM)
Procedure, shortened: as §1

UMC-11
relative viability ([1]; first compound 0.01 µM): 0.778 | relative viability ([1]; first compound 0.03162 µM): 0.681 | relative viability ([1]; first compound 0.1 µM): 0.771 | relative viability ([1]; first compound 0.3162 µM): 0.758 | relative viability ([1]; first compound 1 µM): 0.935 | relative viability ([2]; first compound 0.5 µM): 0.305 | relative viability ([2]; first compound 5 µM): 0.388 | relative viability ([2]; first compound 15.81 µM): 0.462 | relative viability ([2]; first compound 50 µM): 0.377 | relative viability ([3]; first compound 0.5 µM): 0.511 | relative viability ([3]; first compound 5 µM): 0.509 | relative viability ([3]; first compound 15.81 µM): 0.449 | relative viability ([3]; first compound 50 µM): 0.479 | relative viability ([4]; first compound 0.01 µM): 0.402 | relative viability ([4]; first compound 0.03162 µM): 0.391 | relative viability ([4]; first compound 0.1 µM): 0.655 | relative viability ([4]; first compound 0.3162 µM): 0.392 | relative viability ([4]; first compound 1 µM): 0.359
